Results: PubChem BioAssay (NCI)
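Briefly, cells in 96-well plates were exposed to five compound concentrations for 48 h, and endpoints were estimated by linear interpolation. Here, GI50 denotes the concentration required for 50% inhibition of growth. At the TGI there is no net growth.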

Legend:
Assay in all cases: growth of human tumour cells (NCI), 48 h
HOP-62 NSCLC = system: HOP-62 NSCLC
DU-145 prostate = system: DU-145 prostate
MDA-MB-435 = system: MDA-MB-435
HT29 colon = system: HT29 colon
PC-3 prostate = system: PC-3 prostate
MDA-MB-231 breast = system: MDA-MB-231 breast
MALME-3M melanoma = system: MALME-3M melanoma
OVCAR-3 ovarian = system: OVCAR-3 ovarian
BT-549 breast = system: BT-549 breast
XF 498 CNS = system: XF 498 CNS
DLD-1 colon = system: DLD-1 colon

Compound | TGI (HOP-62 NSCLC) | TGI (DU-145 prostate) | TGI (MDA-MB-435) | TGI (HT29 colon) | TGI (PC-3 prostate) | TGI (MDA-MB-231 breast) | TGI (MALME-3M melanoma) | TGI (OVCAR-3 ovarian) | TGI (BT-549 breast) | TGI (XF 498 CNS) | TGI (DLD-1 colon) | GI50 (HOP-62 NSCLC) | GI50 (DU-145 prostate) | GI50 (MDA-MB-435) | GI50 (HT29 colon) | GI50 (PC-3 prostate) | GI50 (MDA-MB-231 breast) | GI50 (OVCAR-3 ovarian) | GI50 (BT-549 breast) | GI50 (MALME-3M melanoma)
CCOC(=O)Cn1c(=O)c(C)cn(COCCO)c1=O | > 100 µM | > 100 µM | > 100 µM | > 100 µM | > 100 µM | > 100 µM | > 100 µM | > 100 µM | > 100 µM | – | – | – | – | – | – | – | – | – | – | –
COC(=O)C1c2cc3c(c(O)c2C(O)CC1(C)O)C(=O)c1c(O)cc2c(c1C3=O)OC1OC2(C)C(O)C(N(C)C)C1O (stereo not drawn) | > 100 µM | 3.44 µM | – | – | 2.43 µM | 2.64 µM | – | > 100 µM | 17.7 µM | > 100 µM | > 100 µM | – | – | – | – | – | – | – | – | –
CCOC(C)OC1CC(n2cc(C)c(=O)[nH]c2=O)OC1CO (stereo not drawn) | > 100 µM | – | – | > 100 µM | – | – | > 100 µM | > 100 µM | – | > 100 µM | > 100 µM | – | – | – | – | – | – | – | – | –
CN/N=C(\C(=O)Nc1ccc(C)c(C)c1)C(C(=O)OC)c1nc2ccc([N+](=O)[O-])cc2[nH]c1=O (stereo not drawn) | > 100 µM | – | – | > 100 µM | – | – | – | – | – | > 100 µM | > 100 µM | – | – | – | – | – | – | – | – | –
COc1ccc(C2=NC(c3ccc(Cl)cc3)C(c3ccc(Cl)cc3)N2C(=O)N2CCNC(=O)C2)c(OC(C)C)c1 (stereo not drawn) | 3.38 µM | 3.54 µM | 3.63 µM | > 10 µM | 4.79 µM | 3.89 µM | – | 3.13 µM | 4.03 µM | – | – | 1.9 µM | 1.8 µM | 1.92 µM | 3.27 µM | 2.26 µM | 1.98 µM | 1.71 µM | 2.03 µM | –
CCN(CC)CCO[Si](OCCN(CC)CC)(OCCN(CC)CC)OCCN(CC)CC | – | – | – | > 100 µM | – | – | > 100 µM | > 100 µM | – | > 100 µM | > 100 µM | – | – | – | – | – | – | – | – | –
O=C(CCC1CCCCN1)Nc1ccc2c(c1)C(=O)c1ccc(NC(=O)CCN3CCCCC3)cc1C2=O (stereo not drawn) | 27.9 µM | – | – | 10.8 µM | – | – | 2.81 µM | 8.37 µM | – | – | 6.37 µM | – | – | – | – | – | – | – | – | –
C(=C/c1nc2ccccc2o1)/c1ccc2c(c1)OCO2 | 45.7 µM | – | – | > 81.8 µM | – | – | > 95.9 µM | 29.1 µM | – | 48.8 µM | > 100 µM | – | – | – | – | – | – | – | – | –
C=C(C)[C@@H]1CC[C@]2(CO)CC[C@]3(C)[C@H](CC[C@@H]4[C@@]5(C)CC[C@H](NCO)C(C)(C)[C@@H]5CC[C@]43C)[C@@H]12 | 1.74 µM | 1.58 µM | 1.78 µM | – | 1.85 µM | 1.75 µM | 1.53 µM | 1.61 µM | 1.53 µM | – | – | 0.862 µM | 0.878 µM | 0.896 µM | – | 0.85 µM | 0.995 µM | 0.88 µM | 0.792 µM | 0.792 µM
CC1OC(=O)C(C(C)C)NC(=O)C(C(C)C)OC(=O)C(C(C)C)NC(=O)C(C)OC(=O)C(C(C)C)NC(=O)C(C(C)C)OC(=O)C(C(C)C)NC(=O)C(C)OC(=O)C(C(C)C)NC(=O)C(C(C)C)OC(=O)C(C(C)C)NC1=O (stereo not drawn) | 0.0144 µM | – | – | 3.4 µM | – | – | 3.63 µM | 0.0148 µM | – | – | 2.05 µM | < 0.0001 µM | – | – | < 0.0001 µM | – | – | < 0.0001 µM | – | –
